Molecules are shown by their SMILES.

The text below walks through data of patent US12622915B2, “Methods of treating PDE IV-mediated diseases or conditions” (Vanda Pharmaceuticals Inc., priority 2020, dated 2026).

The target of series [1] is T1, Phosphodiesterase PDE10A2 (Homo sapiens, UniProt Q9Y233).
T1 construct: host or cells: insect Sf9 cells
As to the kind of experiment: Phosphodiesterase PDE10A2 enzyme assay. In kind it is biochemical. Particulars: N=2, Example 3. The text has this: (§1) Reference standards are run as an integral part of each assay to ensure the validity of the results obtained. Reference Compounds: • Phosphodiesterase PDE10A2 Papaverine • Phosphodiesterase PDE11A4 Dipyridamole • Phosphodiesterase PDE1A MMPX • Phosphodiesterase PDE2A EHNA • Phosphodiesterase PDE3A Cilostamide • Phosphodiesterase PDE4A1A Rolipram • Phosphodiesterase PDE4B1 Rolipram • Phosphodiesterase PDE5A Zaprinast • Phosphodiesterase PDE6 Zaprinast • Phosphodiesterase PDE7A IBMX • Phosphodiesterase PDE7B IBMX • Phosphodiesterase PDE8A1 Dipyridamole • Phosphodiesterase PDE9A2 Zaprinast
(§2) Phosphodiesterase PDE4A1A; Phosphodiesterase PDE4B1; Phosphodiesterase PDE10A2; Phosphodiesterase PDE11A4; Phosphodiesterase PDE2A; Phosphodiesterase PDE3A; Phosphodiesterase PDE7A; Phosphodiesterase PDE7B; and Phosphodiesterase PDE8A1: • Source: Human recombinant insect Sf9 cells • Substrate: 0.10 μM FAM-cAMP • Vehicle: 1.00% DMSO • Significance Crit.: ≥50% of max stimulation or inhibition • Incubation Buffer: 10 mM Tris-HCl, pH 7.2, 10 mM MgCl2, 0.05% NaN3, 0.1% phosphate-free BSA • Quantitation Method: Quantitation of Fluorescein-AMP-IMAP • Pre-Incub. Time/Temp: 15 minutes @25° C. • Incubation Time/Temp: 30 minutes @25° C.
(§3) IC50 values are determined by a non-linear, least squares regression analysis using MathIQ™ (ID Business Solutions Ltd., UK). […]

In series [2] the target is T2, Phosphodiesterase PDE5A (Homo sapiens, UniProt O76074).
T2 construct: host or cells: insect Sf9 cells
The experiment in a line: Phosphodiesterase PDE5A enzyme assay. It counts as biochemical. To be noted: N=2, Example 3.
Source text: as §1
Phosphodiesterase PDE1A; Phosphodiesterase PDE5A; and Phosphodiesterase PDE9A2: • Source: Human recombinant insect Sf9 cells • Substrate: 0.10 μM […] • Vehicle: 1.00% DMSO • Significance Crit.: ≥50% of max stimulation or inhibition • Incubation Buffer: 10 mM Tris-HCl, pH 7.2, 10 mM MgCl2, 0.05% NaN3, 0.1% phosphate-free BSA • Quantitation Method: Quantitation of Fluorescein-GMP-IMAP • Pre-Incub. Time/Temp: 15 minutes @25° C. • Incubation Time/Temp: 30 minutes @25° C.
IC50 values are determined by a non-linear, least squares regression analysis using MathIQ™ (ID Business Solutions Ltd., UK). […] Where presented, the Hill coefficient (nH), defining the slope of the competitive binding curve, is calculated using MathIQ™. […]

The target of series [3] is T3, Phosphodiesterase PDE4B1 (Homo sapiens, UniProt Q07343).
T3 construct: host or cells: insect Sf9 cells
The experiment in a line: Phosphodiesterase PDE4B1 enzyme assay. In kind it is biochemical.
Source text: as §1
PDE4 assays are performed using methods adapted from the literature. See Richter W, et al. (2001) Identification of inhibitor binding sites of the cAMP-specific phosphodiesterase 4. Cell Signal. 13(4): 287-297; Wang H, et al. (2005) Multiple elements jointly determine inhibitor selectivity of cyclic nucleotide phosphodiesterases 4 and 7. J Biol Chem. 280(35): 30949-30955.
as §2
(§4) IC50 values are determined by a non-linear, least squares regression analysis using MathIQ™ (ID Business Solutions Ltd., UK). Where inhibition constants (Ki) are presented, the Ki values are calculated using the equation of Cheng and Prusoff (Cheng, Y., Prusoff, W. H., Biochem. Pharmacol. 22:3099-3108, 1973) using the observed IC50 of the tested compound, the concentration of radioligand employed in the assay, and the historical values for the KD of the ligand. Where presented, the Hill coefficient (nH), defining the slope of the competitive binding curve, is calculated using MathIQ™. […] Where IC50, Ki, and/or nH data are presented without Standard Error of the Mean (SEM), data are insufficient to be quantitative, and the values presented (Ki, IC50, nH) are interpreted with caution.
Reference standards are run as an integral part of each assay to ensure the validity of the results obtained. Rolipram is used for the PDE4 assays.
Phosphodiesterase PDE4B1: • Source: Human recombinant insect Sf9 cells • Substrate: 0.10 μM FAM-cAMP • Vehicle: 1.00% DMSO • Significance Crit.: ≥50% of max stimulation or inhibition • Incubation Buffer: 10 mM Tris-HCl, pH 7.2, 10 mM MgCl2, 0.05% NaN3, 0.1% phosphate-free BSA • Quantitation Method: Quantitation of Fluorescein-AMP-IMAP • Pre-Incub. Time/Temp: 15 minutes @25° C. • Incubation Time/Temp: 30 minutes @25° C.
as §4, with “W.H.,” for “W. H.,”

The nature of series [4]: Ocular instillation studies. In kind it is in vivo. Particulars: preclinical ocular instillation studies.
Series [5] addresses T4, Phosphodiesterase PDE3A (Homo sapiens, UniProt Q14432).
T4 construct: host or cells: insect Sf9 cells
As to the kind of experiment: Phosphodiesterase PDE3A enzyme assay. To be noted: N=2, Example 3. In kind it is biochemical.
Source text: as §1, §2, §3

Series [6] concerns PMA-induced ear thickening and ear weight gain. The experiment in a line: PMA-induced ear inflammation model (Example 1). In kind it is in vivo, BALB/c. To be noted: 6 hours post PMA, topical 0.5% w/v on both ears 30 min before and 15 min after PMA. The method, then:
Animals in group 2, 3, and 4 receive dexamethasone, Crisaborole and the compound of Formula (I), respectively (as a solution in acetone and ethanol by 1:1 ratio), 30 min before PMA challenge, on both ears.
• −24 hr—Randomization (body weight based) • −30 min—Treatment Topical • 0 min—Disease Induction PMA application • 15 min—Treatment Topical • 6 hr—Skin Thickness, Skin Collection (Cohort 1) • 24 hr—Skin Thickness, Skin Collection (Cohort 2)
5 μg/20 μl/right ear and 5 μg/20 μl/left ear (2.5 μg/10 μl in anterior and posterior surface of both ears)
Phorbol 12-myristate 13-acetate (PMA) is formulated in acetone at a concentration of 250 μg/ml. This working solution is applied topically to the anterior and posterior surface of both the ear (10 μl each side).
Ear thickness (both right and left ear): at −1 hr (before PMA challenge), 6 hr and 24 hrs post PMA challenge.
At 6 hr and 24 hrs, respective cohort of animals are euthanized, and ear tissues are collected. […] Left ears are collected and preserved in 10% NBF for Histopathology.

T3 sequence (Q07343 whole entry): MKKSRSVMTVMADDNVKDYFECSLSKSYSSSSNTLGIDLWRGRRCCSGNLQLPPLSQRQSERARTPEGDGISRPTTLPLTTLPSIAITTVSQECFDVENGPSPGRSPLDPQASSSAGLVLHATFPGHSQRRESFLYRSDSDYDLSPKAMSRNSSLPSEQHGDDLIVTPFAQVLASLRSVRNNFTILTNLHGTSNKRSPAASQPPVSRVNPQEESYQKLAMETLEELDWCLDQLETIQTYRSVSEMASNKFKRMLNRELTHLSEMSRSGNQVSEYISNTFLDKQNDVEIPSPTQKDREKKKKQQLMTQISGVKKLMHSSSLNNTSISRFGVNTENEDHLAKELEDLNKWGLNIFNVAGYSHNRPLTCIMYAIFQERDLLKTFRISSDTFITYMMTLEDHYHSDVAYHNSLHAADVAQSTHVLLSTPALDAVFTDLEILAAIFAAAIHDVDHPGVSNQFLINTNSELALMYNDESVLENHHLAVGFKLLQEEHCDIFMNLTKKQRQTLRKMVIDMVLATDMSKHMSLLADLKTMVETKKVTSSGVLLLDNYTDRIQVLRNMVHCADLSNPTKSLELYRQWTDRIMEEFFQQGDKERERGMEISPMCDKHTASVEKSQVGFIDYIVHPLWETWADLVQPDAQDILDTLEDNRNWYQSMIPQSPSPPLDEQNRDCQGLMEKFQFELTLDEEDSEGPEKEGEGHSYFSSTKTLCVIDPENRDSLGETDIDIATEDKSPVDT
T1 sequence (Q9Y233 267-1055): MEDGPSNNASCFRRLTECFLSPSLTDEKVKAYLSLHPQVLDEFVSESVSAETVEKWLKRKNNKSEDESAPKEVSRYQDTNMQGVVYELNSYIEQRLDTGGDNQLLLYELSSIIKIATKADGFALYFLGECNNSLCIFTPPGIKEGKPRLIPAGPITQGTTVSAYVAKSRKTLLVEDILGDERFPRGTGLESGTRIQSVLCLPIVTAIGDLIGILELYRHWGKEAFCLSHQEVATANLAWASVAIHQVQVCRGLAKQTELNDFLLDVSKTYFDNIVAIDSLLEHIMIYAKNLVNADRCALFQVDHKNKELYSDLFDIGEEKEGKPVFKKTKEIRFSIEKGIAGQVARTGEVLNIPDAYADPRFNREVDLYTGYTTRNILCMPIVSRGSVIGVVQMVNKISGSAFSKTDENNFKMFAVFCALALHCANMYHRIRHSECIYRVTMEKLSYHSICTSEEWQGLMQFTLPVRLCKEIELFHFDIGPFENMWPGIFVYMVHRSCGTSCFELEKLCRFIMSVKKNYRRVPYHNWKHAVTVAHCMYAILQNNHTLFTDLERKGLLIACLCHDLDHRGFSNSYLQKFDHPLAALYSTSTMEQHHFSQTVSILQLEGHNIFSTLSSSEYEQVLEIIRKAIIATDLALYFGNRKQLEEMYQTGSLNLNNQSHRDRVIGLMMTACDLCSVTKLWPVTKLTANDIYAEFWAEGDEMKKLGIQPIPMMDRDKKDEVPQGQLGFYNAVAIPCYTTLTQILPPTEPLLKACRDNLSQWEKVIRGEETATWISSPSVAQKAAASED
T4 sequence (Q14432 whole entry): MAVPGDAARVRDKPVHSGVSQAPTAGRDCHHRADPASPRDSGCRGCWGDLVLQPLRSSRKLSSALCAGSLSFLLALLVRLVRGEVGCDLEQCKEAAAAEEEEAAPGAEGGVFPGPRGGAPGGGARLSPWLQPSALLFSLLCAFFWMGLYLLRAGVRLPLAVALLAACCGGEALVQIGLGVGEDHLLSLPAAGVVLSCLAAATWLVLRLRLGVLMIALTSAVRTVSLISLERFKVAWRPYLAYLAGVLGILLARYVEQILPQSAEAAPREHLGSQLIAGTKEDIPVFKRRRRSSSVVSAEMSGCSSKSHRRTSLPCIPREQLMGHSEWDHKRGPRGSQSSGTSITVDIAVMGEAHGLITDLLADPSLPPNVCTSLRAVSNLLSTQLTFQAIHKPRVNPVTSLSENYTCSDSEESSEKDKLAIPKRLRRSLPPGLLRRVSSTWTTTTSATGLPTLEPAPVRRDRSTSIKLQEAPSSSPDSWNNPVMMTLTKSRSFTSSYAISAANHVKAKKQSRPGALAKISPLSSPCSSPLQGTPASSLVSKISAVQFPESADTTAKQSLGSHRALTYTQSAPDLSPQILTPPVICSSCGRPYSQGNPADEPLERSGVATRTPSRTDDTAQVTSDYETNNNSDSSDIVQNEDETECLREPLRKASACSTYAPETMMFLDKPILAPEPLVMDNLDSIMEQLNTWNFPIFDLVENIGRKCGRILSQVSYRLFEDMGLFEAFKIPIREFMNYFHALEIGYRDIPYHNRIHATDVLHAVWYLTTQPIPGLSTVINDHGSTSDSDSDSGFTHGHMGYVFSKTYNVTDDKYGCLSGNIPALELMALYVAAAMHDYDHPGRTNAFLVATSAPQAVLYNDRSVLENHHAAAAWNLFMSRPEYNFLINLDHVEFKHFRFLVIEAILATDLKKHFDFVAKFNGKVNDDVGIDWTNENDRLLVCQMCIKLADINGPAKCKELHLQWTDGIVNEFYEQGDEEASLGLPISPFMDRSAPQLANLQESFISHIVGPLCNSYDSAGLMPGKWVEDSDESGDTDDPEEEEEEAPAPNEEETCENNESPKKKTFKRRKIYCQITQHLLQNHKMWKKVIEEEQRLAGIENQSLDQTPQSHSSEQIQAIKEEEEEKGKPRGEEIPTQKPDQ

In the case of `CNc1nc(Nc2ccccc2)nc(OCC(F)(F)C(F)F)n1` [compound of Formula (I), N^2-methyl-N^4-phenyl-6-(2,2,3,3-tetrafluoropropoxy)-1,3,5-triazine-2,4-diamine], the inhibition – broadly, the change of the read-out against control, counted positive when it falls – at 10 µM in series [1] stood at 11%; in series [2], 27%; in series [3] (N=2, Example 3) it was 96%; in series [3] (N=2, Example 4), 94%; in series [5] it was 6%. Moreover, in series [3] (10 nM, N=2, Example 4), the inhibition at 0.01 µM was found to be 17%. Further, at 0.03 µM the inhibition in series [3] (0.03 μM, N=2, Example 4) was 34%. At 0.1 µM the inhibition in series [3] (0.1 μM, N=2, Example 4) was 49%. For the same compound, the inhibition at 0.3 µM in series [3] (0.3 μM, N=2, Example 4) amounted to 70%. For the same compound, testing at 1 µM in series [3] (1 μM, N=2, Example 4) gave an inhibition of 83%. Also, the inhibition at 3 µM in series [3] (3 μM, N=2, Example 4) came to 91%. Besides, the IC50 (usually the concentration that inhibits the measured activity by half) in series [3] (Example 4) came to 94 nM. In series [4], the “Tolerability on ocular instillation” value is on record as “well tolerated”. For the same compound, the PMA-induced ear thickening result in series [6] is reported as “prevents or reduces”. Further, the “PMA-induced ear weight gain” value in series [6] is recorded as “prevents or reduces”.
